Tests used:
[1] = target: T1, SULT1A3 (Homo sapiens, UniProt P0DMM9); experiment: Pre-steady-state (stopped-flow fluorescence) binding of PAP to SULT1A3 complexes; conditions: E·CMP13 vs E
T1 construct: E. coli–optimized SULT coding regions were inserted into a pGEX-6P expression vector; N-His/GST/MBP triple tag (PreScission-cleavable) (N, cleaved yes); made in house; host or cells: E. coli BL21(DE3)
Source text: (§1) Figure 4 The inhibition mechanism. A, equilibrium binding. Binding was monitored via ligand-induced changes in SULT1A3 intrinsic fluorescence (λex = 290 nm, λem = 335 nm). […] Each dot represents the average of three independent titrations. Lines passing through the data represent the outcomes predicted by least-squares fitting of the averaged data to a single-binding-site model. B, representative PAP-binding reaction. PAP binding was monitored using a stopped-flow fluorimeter (λex = 290 nm, λem ≥ 330 nm (cutoff filter)). Reactions were initiated by rapidly mixing (1:1 v/v) a solution containing SULT1A3 (30 nM, dimer), CMP13 (1.0 μM, 100 × Kd), Tam (160 μM, 200 × Kd), KPO4 (50 mM), pH 7.5, 25(±2) °C, with a solution that was identical except that it lacked SULT1A3 and contained PAP (2.0 μM). The average of five independent progress curves shown and the kobs was obtained by fitting the data to a single exponential. C, pre–steady-state binding. PAP binding was monitored as described for panel B. Reactions were initiated by mixing (1:1 v/v) a solution containing SULT1A3 (30 nM, dimer), CMP13 [0 μM (black dots) or 1.0 μM, 100 × Kd (red and blue dots)], Tam [0 μM (black and blue dots) or 160 μM, 200 × Kd (red dots)], KPO4 (50 mM), pH 7.5, 25(±2) °C, with a solution that was identical except that it lacked SULT1A3 and contained PAP at twice the indicated concentrations. Each kobs value was determined in triplicate, and the averaged values are shown. kon and koff are given, respectively, by the slopes and intercepts obtained from linear least-squares fitting of the kobs vs [PAP] plot. PAP, 3′-phosphoadenosine-5′-phosphate; SULT1A3, sulfotransferase 1A3; Tam, 4-hydroxy-tamoxifen.
To resolve this uncertainty, PAP on- and off-rate constants for a series of open and closed complexes were determined using stopped-flow fluorescence. A representative binding reaction can be seen in Fig. 4B. The binding reactions were pseudo-first order in [PAP], and kobs values were obtained by fitting reaction progress curves to a single-exponential equation. On- and off-rate constants (see Table 3) are given by the plot slopes and intercepts.
Pre–steady-state binding of PAP to SULT1A3 was monitored via ligand-induced changes in SULT1A3 fluorescence using an Applied Photophysics SX20 stopped-flow spectrofluorometer. Fluorescence was measured at λex = 290 nm and λem ≥ 330 nm (using a cutoff filter). […] All reactions were pseudo first order with respect to [PAP]. kobs values, determined in triplicate at each PAP concentration, were obtained by least-squares fitting the average of five progress curves to a single-exponential equation. kon and koff, obtained by linear least-squares fitting, are given by the slopes and intercepts of four-point kobs-vs-[PAP] plots.

[2] = target: T1, SULT1A3; experiment: Equilibrium binding of CMP13 to SULT1A3 complexes (intrinsic fluorescence)
Source text: as §1
CMP13 binding to SULT1A3 was monitored via binding-induced changes in SULT1A3 intrinsic fluorescence (λex= 290 nm, λem= 335 nm ([17])). […] PAP binding was determined using the same protocol except that [PAP] was varied and CMP13 was 1.0 μM (100 × Ki). Titrations were performed in triplicate. Data were averaged and least-squares fit using a model that assumes a single binding site per monomer.

T1 sequence (P0DMM9 whole entry): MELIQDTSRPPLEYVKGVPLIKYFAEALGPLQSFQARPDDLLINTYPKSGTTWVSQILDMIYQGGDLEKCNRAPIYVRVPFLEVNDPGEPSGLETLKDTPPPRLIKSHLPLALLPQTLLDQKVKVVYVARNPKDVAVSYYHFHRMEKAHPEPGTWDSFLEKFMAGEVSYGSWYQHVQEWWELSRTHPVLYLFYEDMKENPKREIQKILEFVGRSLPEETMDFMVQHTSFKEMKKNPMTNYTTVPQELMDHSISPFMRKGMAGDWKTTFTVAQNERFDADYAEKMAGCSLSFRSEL

fold decrease of the PAP off-rate constant caused by inhibitor [1]: ~14 fold | Kd ([2]; complex E (unliganded, cap-open)): 130 nM | Kd ([2]; complex E·PAP (cap-closed), PAP 350 μM): 11 nM | Kd ([2]; complex E·PAP·Tam (cap held open), PAP 350 μM, Tam 160 μM): 133 nM | fold tighter binding to cap-closed E·PAP than to open form E ([2]; ratio of Kd values): 12 fold
Compound: CC(C)Cc1ccc2cc(/C=C/C(N)=O)cnc2n1 [CMP13]
